The record followed here is patent US20200405696A1, “INHIBITORS OF INDOLEAMINE 2,3-DIOXYGENASE AND/OR TRYPTOPHAN 2,3-DIOXYGENASE” (IDORSIA PHARMACEUTICALS LTD, priority 2018, published 2020).

Experiment [1] has as its target T1, Recombinant full-length human IDO1 (Homo sapiens, UniProt P14902).
T1 construct: Recombinant full-length human IDO1 with a N-terminal hexahistidine tag; hexahistidine (His6) (N); made in house; host or cells: E. coli
Kind of experiment: IDO1 enzymatic assay (NFK quantified by LCMS). The class given is biochemical. The conditions noted are these: 2 nM enzyme, 5 μM L-tryptophan, pH6.5, 30 minutes pre-incubation at RT; mean values when measured multiple times; read-out: hIDO activity (IC50 in nM). In short, it runs like this: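 IC50 comes from four-parameter logistic fits of duplicate data, with NFK quantified by LCMS and normalized to L-Trp-(indole-d5). Compound (0.5 nM–10 μM) was preincubated 30 min at RT with 2 nM E. coli-expressed IDO1 before a 30 min reaction with 5 μM tryptophan in pH 6.5 buffer containing ascorbate and methylene blue.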

Experiment [2] has as its target T2, Recombinant human TDO comprising amino acids 19-407 (Homo sapiens, UniProt P48775).
T2 construct: Recombinant human TDO comprising amino acids 19-407 with a N-terminal hexahistidine tag; hexahistidine (His6) (N); made in house; host or cells: E. coli
Description: TDO2 enzymatic assay (NFK quantified by LCMS). The class given is biochemical. The conditions noted are these: 15 nM enzyme, 200 μM L-tryptophan, pH7, 30 minutes pre-incubation at RT; mean values when measured multiple times; read-out: hTDO activity (IC50 in nM). In short, it runs like this:
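NFK formed over 30 min at RT from 200 μM L-tryptophan was measured by LCMS, normalized to d5-tryptophan, after compound (0.5 nM–10 μM, duplicates, 0.6% DMSO) was preincubated 30 min with 15 nM recombinant His-tagged TDO 19-407 in phosphate buffer pH 7. IC50 from four-parameter logistic fit; repeats averaged.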

T1 sequence (P14902 whole entry): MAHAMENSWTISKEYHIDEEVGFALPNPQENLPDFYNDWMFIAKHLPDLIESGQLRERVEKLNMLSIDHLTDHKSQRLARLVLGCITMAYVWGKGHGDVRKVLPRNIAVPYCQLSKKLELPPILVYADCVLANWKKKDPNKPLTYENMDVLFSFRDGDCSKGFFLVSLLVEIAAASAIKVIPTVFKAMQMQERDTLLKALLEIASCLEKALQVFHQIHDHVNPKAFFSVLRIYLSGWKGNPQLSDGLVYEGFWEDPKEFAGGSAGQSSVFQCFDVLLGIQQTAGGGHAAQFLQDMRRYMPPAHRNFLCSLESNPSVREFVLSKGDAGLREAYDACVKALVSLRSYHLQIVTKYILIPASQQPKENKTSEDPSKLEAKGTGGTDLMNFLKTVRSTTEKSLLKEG
T2 sequence (P48775 19-406 limits assumed): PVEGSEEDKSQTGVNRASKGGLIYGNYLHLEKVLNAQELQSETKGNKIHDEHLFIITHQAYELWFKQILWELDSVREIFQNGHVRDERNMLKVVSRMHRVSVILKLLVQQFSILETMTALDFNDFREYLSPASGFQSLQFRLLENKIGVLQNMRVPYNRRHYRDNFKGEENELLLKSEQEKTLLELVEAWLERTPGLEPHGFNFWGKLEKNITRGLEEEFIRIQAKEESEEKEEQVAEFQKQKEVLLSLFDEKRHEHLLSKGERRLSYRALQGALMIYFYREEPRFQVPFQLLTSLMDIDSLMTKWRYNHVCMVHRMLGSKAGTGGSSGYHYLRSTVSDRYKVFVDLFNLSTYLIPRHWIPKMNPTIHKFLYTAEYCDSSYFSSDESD

The IC50 is the point on the concentration scale where inhibition reaches its midpoint. Consider `Cc1sc2cncn2c1C(O)c1ccc(-c2ccccc2)s1` (racemic) [Example 154, rac-(2-Methyl-imidazo[5,1-b]thiazol-3-yl)-(5-phenyl-thiophen-2-yl)-methanol], for which the IC50 in experiment [1] was 366 nM; in experiment [2], 7270 nM.

For the compound `COc1ccc(-n2cc(C(O)c3c(C4CC4)sc4cncn34)nn2)c(OC)n1` (racemic) [Example 81, rac-(2-Cyclopropyl-imidazo[5,1-b]thiazol-3-yl)-[1-(2,6-dimethoxy-pyridin-3-yl)-1H-[1,2,3]triazol-4-yl]-methanol], the IC50 was 36.1 nM in experiment [1] and > 10200 nM in experiment [2].

On to `OC(c1cn(-c2ccc3[nH]ncc3c2)nn1)c1c(C2CC2)sc2cncn12` (racemic) [Example 253, rac-(2-Cyclopropyl-imidazo[5,1-b]thiazol-3-yl)-[1-(1H-indazol-5-yl)-1H-[1,2,3]triazol-4-yl]-methanol], for which the values for the IC50 in experiment [1] and in experiment [2] were 17.2 nM and > 10200 nM, respectively.

As for `C=C(C)c1sc2cncn2c1C(O)c1cn(-c2ccc(OCCC(C)(C)O)c(Cl)c2)nn1` (racemic) [Example 293, rac-4-(2-Chloro-4-{4-[hydroxy-(2-isopropenyl-imidazo[5,1-b]thiazol-3-yl)-methyl]-[1,2,3]triazol-1-yl}-phenoxy)-2-methyl-butan-2-ol], the values for the IC50 in experiment [1] and in experiment [2] were 17.6 nM and > 10200 nM, respectively.

Regarding `OC(c1cn(-c2ccc(OCc3ccccc3)c(F)c2)nn1)c1c([C@@H]2C[C@H]2F)sc2cncn12` (relative stereo) [Example 322, [1-(4-Benzyloxy-3-fluoro-phenyl)-1H-[1,2,3]triazol-4-yl]-[2-(trans-2-fluoro-cyclopropyl)-imidazo[5,1-b]thiazol-3-yl]-methanol], the IC50 is 16.2 nM in experiment [1] and > 10200 nM in experiment [2].

`Cn1cc(-n2cc(C(O)c3c(C4CC4)sc4cncn34)nn2)cn1` (racemic) [Example 43, rac-(2-Cyclopropyl-imidazo[5,1-b]thiazol-3-yl)-[1-(1-methyl-1H-pyrazol-4-yl)-1H-[1,2,3]triazol-4-yl]-methanol]: the IC50 in experiment [1] is 95 nM; in experiment [2], > 10200 nM.

On to `COc1cc(-n2cc(C(O)c3c(C4CC4)sc4cncn34)nn2)c(OC)nn1` (racemic) [Example 86, rac-(2-Cyclopropyl-imidazo[5,1-b]thiazol-3-yl)-[1-(3,6-dimethoxy-pyridazin-4-yl)-1H-[1,2,3]triazol-4-yl]-methanol], for which the values for the IC50 in experiment [1] and in experiment [2] were 23.1 nM and > 10200 nM, respectively.

For `OCCOCCOc1ccc(-n2cc(C(O)c3c(C4CC4)sc4cncn34)nn2)cc1` (racemic) [Example 138, rac-2-[2-(4-{4-[(2-Cyclopropyl-imidazo[5,1-b]thiazol-3-yl)-hydroxy-methyl]-[1,2,3]triazol-1-yl}-phenoxy)-ethoxy]-ethanol], the results for the IC50 in experiment [1] and in experiment [2] were 16.5 nM and > 10200 nM, respectively.

Regarding `COC(=O)c1cc(-n2cc(C(O)c3c(C4CC4)sc4cncn34)nn2)cnc1OC` (racemic) [Example 70, rac-5-{4-[(2-Cyclopropyl-imidazo[5,1-b]thiazol-3-yl)-hydroxy-methyl]-[1,2,3]triazol-1-yl}-2-methoxy-nicotinic acid methyl ester], the IC50 in experiment [1] was 201 nM; in experiment [2], > 10200 nM.

As for `Oc1ccc(-n2cc(C(O)c3c(C4CC4)sc4cncn34)nn2)cc1OC(F)(F)F` (racemic) [Example 210, rac-4-{4-[(2-Cyclopropyl-imidazo[5,1-b]thiazol-3-yl)-hydroxy-methyl]-[1,2,3]triazol-1-yl}-2-trifluoromethoxy-phenol], the IC50 in experiment [1] is 23.5 nM; in experiment [2], > 10200 nM.

With `COc1cccc(-n2cc(C(O)c3c(C4CC4)sc4cncn34)nn2)c1` (racemic) [Example 8, rac-(2-Cyclopropyl-imidazo[5,1-b]thiazol-3-yl)-[1-(3-methoxy-phenyl)-1H-[1,2,3]triazol-4-yl]-methanol], the IC50 in experiment [1] is 35.5 nM; in experiment [2] it was > 10200 nM.

As for `O[C@@H](c1cn(-c2ccc(OCC3CC3)cc2)nn1)c1c(C2CC2)sc2cncn12` [Example 35a, (R)-(2-Cyclopropyl-imidazo[5,1-b]thiazol-3-yl)-[1-(4-cyclopropylmethoxy-phenyl)-1H-[1,2,3]triazol-4-yl]-methanol], the IC50 is 9.7 nM in experiment [1] and > 10200 nM in experiment [2].

Consider `CCc1sc2cncn2c1C(O)c1cn(-c2ccc(NC(=O)c3ccccc3)cc2)nn1` (racemic) [Example 230, rac-N-(4-{4-[(2-Ethyl-imidazo[5,1-b]thiazol-3-yl)-hydroxy-methyl]-[1,2,3]triazol-1-yl}-phenyl)-benzamide], for which the IC50 in experiment [1] was determined as 28.7 nM; in experiment [2], 2710 nM.

In the case of `O=C(NCc1ccco1)c1ccc(-n2cc(C(O)c3c(C4CC4)sc4cncn34)nn2)cc1` (racemic) [Example 190, rac-4-{4-[(2-Cyclopropyl-imidazo[5,1-b]thiazol-3-yl)-hydroxy-methyl]-[1,2,3]triazol-1-yl}-N-furan-2-ylmethyl-benzamide], the IC50 was 8.8 nM in experiment [1] and > 10200 nM in experiment [2].

As for `OC(c1cn(-c2cncnc2)nn1)c1c(C2CC2)sc2cncn12` (racemic) [Example 19, rac-(2-Cyclopropyl-imidazo[5,1-b]thiazol-3-yl)-(1-pyrimidin-5-yl-1H-[1,2,3]triazol-4-yl)-methanol], the IC50 is 182 nM in experiment [1] and > 10200 nM in experiment [2].

For the compound `CCc1sc2cncn2c1C(O)c1cn(-c2ccc(C(=O)N3CCOCC3)cc2)nn1` (racemic) [Example 117, rac-(4-{4-[(2-Ethyl-imidazo[5,1-b]thiazol-3-yl)-hydroxy-methyl]-[1,2,3]triazol-1-yl}-phenyl)-morpholin-4-yl-methanone], the IC50 was 93.3 nM in experiment [1] and > 10200 nM in experiment [2].

As for `OC(c1nnc(-c2ccccc2)s1)c1c(C2CC2)sc2cncn12` (racemic) [Example 175, rac-(2-Cyclopropyl-imidazo[5,1-b]thiazol-3-yl)-(5-phenyl-[1,3,4]thiadiazol-2-yl)-methanol], the IC50 in experiment [1] was 122 nM; in experiment [2], > 10200 nM.

With `CCc1sc2cncn2c1C(O)c1cn(-c2ccc(S(=O)(=O)NC)cc2)nn1` (racemic) [Example 225, rac-4-{4-[(2-Ethyl-imidazo[5,1-b]thiazol-3-yl)-hydroxy-methyl]-[1,2,3]triazol-1-yl}-N-methyl-benzenesulfonamide], the IC50 in experiment [1] is 47.2 nM; in experiment [2] it was > 10200 nM.

For `COc1ccc(-n2cc(C(O)c3c(C4=CCCC4)sc4cncn34)nn2)cc1` (racemic) [Example 259, rac-(2-(Cyclopent-1-enyl)-imidazo[5,1-b]thiazol-3-yl)-[1-(4-methoxy-phenyl)-1H-[1,2,3]triazol-4-yl]-methanol], the IC50 in experiment [1] is 85.6 nM; in experiment [2], > 10200 nM.

As to `Cc1sc2cncn2c1C(O)c1cnc(-c2ccccc2)s1` (racemic) [Example 155, rac-(2-Methyl-imidazo[5,1-b]thiazol-3-yl)-(2-phenyl-thiazol-5-yl)-methanol], the results for the IC50 in experiment [1] and in experiment [2] were 734 nM and > 10200 nM, respectively.

On to `COc1ccc(-n2cc(C(O)c3c(C(C)(F)F)sc4cncn34)nn2)cc1` (racemic) [Example 257, rac-[2-(1,1-Difluoro-ethyl)-imidazo[5,1-b]thiazol-3-yl]-[1-(4-methoxy-phenyl)-1H-[1,2,3]triazol-4-yl]-methanol], for which the IC50 in experiment [1] is 17.5 nM; in experiment [2], > 10200 nM.

Regarding `OC(c1cn(-c2ccc3c(Cl)n[nH]c3c2)nn1)c1c(C2CC2)sc2cncn12` (racemic) [Example 258, rac-[1-(3-Chloro-1H-indazol-6-yl)-1H-[1,2,3]triazol-4-yl]-(2-cyclopropyl-imidazo[5,1-b]thiazol-3-yl)-methanol], the IC50 in experiment [1] is 34 nM; in experiment [2] it was > 10200 nM.

For `OC[C@H](O)COc1ccc(-n2cc(C(O)c3c(C4CC4)sc4cncn34)nn2)cc1` (mixture of isomers) [Example 202, (S)-3-(4-{4-[(R)-(2-Cyclopropyl-imidazo[5,1-b]thiazol-3-yl)-hydroxy-methyl]-[1,2,3]triazol-1-yl}-phenoxy)-propane-1,2-diol and (S)-3-(4-{4-[(S)-(2-Cyclopropyl-imidazo[5,1-b]thiazol-3-yl)-hydroxy-methyl]-[1,2,3]triazol-1-yl}-phenoxy)-propane-1,2-diol], the IC50 is 15 nM in experiment [1] and > 10200 nM in experiment [2].

As to `Oc1cc(-n2cc(C(O)c3c(C4CC4)sc4cncn34)nn2)cc(C(F)(F)F)c1` (racemic) [Example 219, rac-3-{4-[(2-Cyclopropyl-imidazo[5,1-b]thiazol-3-yl)-hydroxy-methyl]-[1,2,3]triazol-1-yl}-5-trifluoromethyl-phenol], the IC50 was 63.2 nM in experiment [1] and > 10200 nM in experiment [2].

For the compound `Cc1sc2cncn2c1C(O)c1cc(-c2ccccc2)no1` (racemic) [Example 156, rac-(2-Methyl-imidazo[5,1-b]thiazol-3-yl)-(3-phenyl-isoxazol-5-yl)-methanol], the IC50 in experiment [1] is 406 nM; in experiment [2] it was > 10200 nM.
